Values of other authors, collected in patent publication US20100062042A1, “Methods, Systems and Devices for Administration of Chlorine Dioxide” (priority 2008, published 2010).

Columns and labels:
[1] = test system: methicillin-resistant Staphylococcus aureus (MRSA); settings: see U.S. Application No. 61/150,685
[2] = test system: Pseudomonas aeruginosa (P. aeruginosa); settings: see U.S. Application No. 61/150,685
[3] = particularly in chilled water

In the case of `[O][Cl+][O-]` [chlorine dioxide, Chlorine dioxide], the “Effectiveness against MRSA” value [1] is listed as “effective”, the “Effectiveness against P. aeruginosa” value [2] is listed as “effective” and the Solubility in water [3] is listed as “high solubility in water”.
